{"source": "patent US20080207544A1", "about": "“Compositions And Methods For Delivery Of Agents Into Cells” (priority 2005, published 2008)", "key": {"B16 melanoma cells": {"system": "B16 melanoma cells", "test": "Luciferase transfection of B16 cells with FGF receptor targeted lipoplexes", "format": "cell-based", "conditions": "same experimental conditions as RG2", "procedure": "FIG. 13. Transfection of B16 cells by implementation of FGF receptor targeted lipoplexes. Transfection With CXCR4-ligand targeted lipoplexes leads to increased transfection-efficiency in vitro. Whether increased specific binding to cells expressing the targeted receptor leads to increased transfection-efficiency in vitro is tested by transfecting cells with targeted and untargeted lipoplexes expressing the reporter-enzyme luciferase. Many tumor cell-lines express CXCR4, including the RG2 cell-line (as confirmed by flow cytometry; data not shown). These cells are efficiently transfected with lipoplexes prepared as described in the materials and methods section. Transfection of cells with untargeted lipoplexes coding for GFP at a dose of 1 μg DNA per 50,000 cells typically leads to a 30-40% transfection-efficiency after 48 hours (data not shown). However, whenever the lipid-composition of the optimized formulation was changed by titrating in cysteine-modified DOPE-MPB (DOPE-MPB-Cys) or DOPE instead of Lym-X-Sorb (i.e. modification of helper-lipids); the transfection-efficiency decreased steadily. Even at low concentrations of DOPE-MPB-Cys and DOPE (1 molepercent) transfection-efficiency as measured by luciferase-expression after 48 hours (1 μg per well) was decreased by about 30% (100% being 4*10^4 RLU equivalent to 35 ng recombinant luciferase per well). […]"}, "RG2 cells": {"system": "RG2 cells", "test": "Luciferase gene transfer activity of modified lipoplexes in RG2 cells", "format": "cell-based, rat", "conditions": "48 hours, 1 μg per well", "procedure": "FIG. 12. In vitro gene transfer activity of lipoplexes modified with different lipids. Complexes with DOPE-MPB-Cys, DOPE or CXCR4-lipopeptide were incubated with RG2 cells (1 μg pLC0888/well). Each point is an average of three wells ±SD.\nPreparation of lipoplexes. The lipid-based transfection-reagent (Genzyme lipid 89:Lym-X-Sorb:Vitamin E 10:89:1) was prepared aseptically by mixing 8 μl of Genzyme lipid 89 (25 mg/ml in chloroform or 0.038 μmoles/μl) (Genzyme, Cambridge, Mass.); 7.5 μl Lym-X-Sorb (138 mg/ml in chloroform or 0.365 μmoles/μl) (Avanti Polar Lipids, Birmingham, Ala.) and 2.2 μl Vitamin E (5.905 mg/ml or 0.0137 μmoles/μl) (Sigma, St Louis, Mo.) in a clean reagent-tube. Once the lipids were thoroughly mixed the solvent was evaporated using argon. Residual solvent was removed by placing the vial under a vacuum in the desiccator for 30 mins. The dried lipid-film was hydrated with 3 ml of HEPES Buffered Saline (HBS; 7.5 mM HEPES, 150 mM NaCl). After hydration the transfection-mixture was bath-sonicated for 5 minutes. […]\nLuciferase-Assay. […] 150 μl of lysisbuffer (0.1 M potassium phosphate buffer; 1% Tx-100; 1 mM DTT; 2 mM EDTA; pH=7.8) (Sigma, St. Louis, Mo.) was added to each well and the plate was stored at −80° C. for 10 minutes or until ready to be assayed. […]"}}}
{"smiles": "CCCCCCCC/C=C\\CCCCCCCC(=O)OC[C@H](COP(=O)(O)OCCN)OC(=O)CCCCCCC/C=C\\CCCCCCCC", "note": "[DOPE]", "values": [{"measurement": "luciferase expression / transfection efficiency as a function of mol % of modifier lipid", "setting": "B16 melanoma cells", "value": "decreased luciferase expression"}, {"measurement": "decrease of transfection-efficiency as measured by luciferase-expression", "setting": "RG2 cells; 1 molepercent modification-lipid instead of Lym-X-Sorb", "value": "about 30%"}, {"measurement": "transfection-efficiency (luciferase)", "setting": "RG2 cells; 20 molepercent modification-lipid", "value": "3.9±1.1 % of control"}]}
